# Laboratory results as given in US20250163089A1, “Branched Molecules for Redox Flow Batteries” (XL Batteries, Inc., priority 2023, published 2025).
# Experiments:
# [1] = Viscosity of the solution; format: physicochemical; details: at a concentration of […]
# [2] = solvent not stated
"maximum concentration dissolved, after which solid precipitated from the solution [2] [M]",Compound,viscosity [1] [cP]
–,N-(4-ferrocenylbutanoyl)-L-glutamate,3.7
0.251,O=C(O)CCC[c-]1cccc1.[Fe+2].c1cc[cH-]c1 [4-ferrocene butyric acid],–
